What was measured:
Assay type in all cases: biochemical
Conditions in all cases: HotSpot functional assay, isolated kinase enzyme, 33P-ATP
IRAK1 = biological target: T1, IRAK1 (Homo sapiens, UniProt P51617); assay: RBC HotSpot Kinase Assay, IRAK1
T1 construct: purchased RBC (Reaction Biology) HotSpot assay
Text: (§1) This assay uses the isolated kinase enzyme. This assay is very useful for determining competition of the inhibitor for ATP and/or substrates and for measuring the kinetics of enzyme inhibition. […] Unlike kinase binding assays that measure competition for ATP, the HotSpot Kinase Assay is a functional assay that measures catalytic activity; as such it measures relative functional potency regardless of the mechanism of enzyme inhibition. This assay uses the form of the various enzymes that are easiest to express, which may not necessarily be the form of the enzyme that exist in the cell. (Sometimes the carboxy terminus has been truncated to aid in expression, or, if it is a receptor kinase, the enzyme itself is isolated from the other parts of the receptor that are involved in regulating kinase activity.)
(§2) The reagent used was as follows: Base Reaction buffer; 20 mM Hepes (pH 7.5), 10 mM MgCl2, 1 mM EGTA, 0.01% Brij35, 0.02 mg/mi BSA, 0.1 mM Na3VO4, 2 mM DTT, 1% DMSO. Required cofactors were added individually to each kinase reaction.
(§3) The reaction procedure was as follows: • 1) Substrates were prepared in freshly prepared Reaction Buffer. • 2) Any required cofactors were delivered to the substrate solution above. • 3) Kinase was delivered into the substrate solution and gently mixed. • 4) Compounds were delivered in 100% DMSO into the kinase reaction mixture by Acoustic technology (Echo550, nanoliter range), followed by incubation for 20 min at room temp. • 5) ^33P-ATP was delivered into the reaction mixture to initiate the reaction. • 6) The mixture was incubated for 2 hours at room temperature. • 7) Kinase activity was detected by P81 filter-binding method.

IRAK4 = biological target: T2, IRAK4 (Homo sapiens, UniProt Q9NWZ3); assay: RBC HotSpot Kinase Assay, IRAK4; design: purchased RBC (Reaction Biology) HotSpot assay
T2 sequence (Q9NWZ3 1-460): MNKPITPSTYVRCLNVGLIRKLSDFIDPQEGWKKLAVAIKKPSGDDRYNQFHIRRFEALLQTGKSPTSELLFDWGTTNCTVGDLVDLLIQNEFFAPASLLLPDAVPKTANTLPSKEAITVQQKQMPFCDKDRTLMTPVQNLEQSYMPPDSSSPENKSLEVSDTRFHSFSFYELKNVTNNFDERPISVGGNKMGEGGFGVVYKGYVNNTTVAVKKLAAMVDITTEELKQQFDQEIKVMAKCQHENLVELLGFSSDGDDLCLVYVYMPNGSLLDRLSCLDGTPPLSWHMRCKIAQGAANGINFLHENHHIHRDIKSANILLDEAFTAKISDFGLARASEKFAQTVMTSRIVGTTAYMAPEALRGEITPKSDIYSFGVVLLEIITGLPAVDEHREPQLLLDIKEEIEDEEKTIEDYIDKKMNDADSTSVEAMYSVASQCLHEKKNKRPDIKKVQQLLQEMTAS
Text: as §1, §2, §3

FLT3 = biological target: T3, FLT3 (Homo sapiens, UniProt P36888); assay: RBC HotSpot Kinase Assay, FLT3; design: purchased RBC (Reaction Biology) HotSpot assay
T3 sequence (P36888 27-993): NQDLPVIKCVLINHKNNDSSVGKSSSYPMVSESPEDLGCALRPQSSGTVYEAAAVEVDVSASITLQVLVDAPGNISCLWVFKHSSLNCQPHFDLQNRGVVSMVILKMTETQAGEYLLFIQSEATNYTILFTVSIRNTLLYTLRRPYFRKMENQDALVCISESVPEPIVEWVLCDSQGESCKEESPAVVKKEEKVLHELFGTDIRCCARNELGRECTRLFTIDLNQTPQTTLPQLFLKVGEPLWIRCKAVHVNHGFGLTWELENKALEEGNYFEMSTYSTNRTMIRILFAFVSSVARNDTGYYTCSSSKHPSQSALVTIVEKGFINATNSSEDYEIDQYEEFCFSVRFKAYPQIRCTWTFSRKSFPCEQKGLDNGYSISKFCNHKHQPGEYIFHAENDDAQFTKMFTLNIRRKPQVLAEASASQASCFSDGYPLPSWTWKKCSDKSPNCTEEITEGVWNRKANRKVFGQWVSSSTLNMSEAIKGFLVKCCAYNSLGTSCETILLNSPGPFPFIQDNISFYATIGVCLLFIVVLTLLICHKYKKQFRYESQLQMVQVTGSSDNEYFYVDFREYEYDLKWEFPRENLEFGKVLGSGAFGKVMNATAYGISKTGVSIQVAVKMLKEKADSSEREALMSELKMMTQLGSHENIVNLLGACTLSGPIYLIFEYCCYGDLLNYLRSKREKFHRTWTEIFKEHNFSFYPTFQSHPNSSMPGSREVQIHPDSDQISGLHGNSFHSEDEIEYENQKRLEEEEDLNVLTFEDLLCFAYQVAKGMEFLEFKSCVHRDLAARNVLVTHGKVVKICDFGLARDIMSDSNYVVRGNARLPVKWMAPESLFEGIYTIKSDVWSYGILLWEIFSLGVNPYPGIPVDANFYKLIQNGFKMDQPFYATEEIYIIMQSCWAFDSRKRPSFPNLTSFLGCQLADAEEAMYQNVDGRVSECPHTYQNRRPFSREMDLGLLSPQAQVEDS
Text: as §1, §2, §3

T1 sequence (P51617 whole entry): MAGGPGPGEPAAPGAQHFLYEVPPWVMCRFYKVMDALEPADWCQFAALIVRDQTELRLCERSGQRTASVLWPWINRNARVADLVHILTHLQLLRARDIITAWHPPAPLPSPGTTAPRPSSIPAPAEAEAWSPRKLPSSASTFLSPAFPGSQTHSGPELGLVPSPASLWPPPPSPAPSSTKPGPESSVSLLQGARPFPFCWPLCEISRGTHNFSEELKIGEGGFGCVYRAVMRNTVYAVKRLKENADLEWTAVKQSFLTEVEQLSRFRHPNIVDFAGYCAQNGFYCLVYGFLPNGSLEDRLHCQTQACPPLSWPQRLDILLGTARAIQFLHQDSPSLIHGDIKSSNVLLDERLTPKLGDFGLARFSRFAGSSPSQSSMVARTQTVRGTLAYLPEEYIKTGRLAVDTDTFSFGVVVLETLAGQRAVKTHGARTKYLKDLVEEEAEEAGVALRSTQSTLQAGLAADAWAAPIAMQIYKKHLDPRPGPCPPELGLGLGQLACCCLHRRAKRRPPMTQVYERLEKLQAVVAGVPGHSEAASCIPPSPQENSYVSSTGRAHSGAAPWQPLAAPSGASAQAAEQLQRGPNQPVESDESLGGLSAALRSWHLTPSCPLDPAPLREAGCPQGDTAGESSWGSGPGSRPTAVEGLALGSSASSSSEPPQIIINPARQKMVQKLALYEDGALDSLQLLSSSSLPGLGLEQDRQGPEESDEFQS

Row | IC50 (IRAK1) [nM] | IC50 (IRAK4) [nM] | IC50 (FLT3) [nM] | SMILES
1 | 55 | 9 | < 0.5 | COc1cc2ncc(-c3nc(N[C@H]4CNCC[C@@H]4F)c(F)cc3F)n2nc1N1CCCC1=O [Compound 22a, 1-(3-(3,5-difluoro-6-(((3S,4S)-4-fluoropiperidin-3-yl)amino)pyridin-2-yl)-7-methoxyimidazo[1,2-b]pyridazin-6-yl)pyrrolidin-2-one]
2 | 348 | 48 | 2 | COc1cc2ncc(-c3nc(N[C@@H]4CCCNC4)c(F)cc3F)n2nc1N1CCCC1=O [Compound 23a, (R)-1-(3-(3,5-difluoro-6-(piperidin-3-ylamino)pyridin-2-yl)-7-methoxyimidazo[1,2-b]pyridazin-6-yl)pyrrolidin-2-one]
3 | 186 | 11 | 1 | COc1cc2ncc(-c3nc(N[C@H]4CNC[C@@H]4F)c(F)cc3F)n2nc1N1CCCC1=O [Compound 24a, 1-(3-(3,5-difluoro-6-(((3S,4S)-4-fluoropyrrolidin-3-yl)amino)pyridin-2-yl)-7-methoxyimidazo[1,2-b]pyridazin-6-yl)pyrrolidin-2-one]
4 | 5 | < 0.5 | < 0.5 | COc1cc2ncc(-c3ccc(C#N)c(N[C@H]4CNC[C@@H]4F)n3)n2nc1C1CC1 [Compound 27a, 6-(6-cyclopropyl-7-methoxyimidazo[1,2-b]pyridazin-3-yl)-2-(((3S,4S)-4-fluoropyrrolidin-3-yl)amino) nicotinonitrile]
5 | 2290 | 110 | 48 | COc1cc2ncc(-c3nc(N[C@@H]4CCCNC4)ccc3C#N)n2nc1C1CC1 [Compound 30a, (R)-2-(6-cyclopropyl-7-methoxyimidazo[1,2-b]pyridazin-3-yl)-6-(piperidin-3-ylamino)nicotinonitrile]
6 | 1110 | 10 | 43 | COc1cc2ncc(-c3nc(N[C@H]4CNCC[C@@H]4F)ccc3C#N)n2nc1C1CC1 [Compound 31a, 2-(6-cyclopropyl-7-methoxyimidazo[1,2-b]pyridazin-3-yl)-6-(((3S,4S)-4-fluoropiperidin-3-yl)amino)nicotinonitrile]
7 | > 10000 | 853 | 80 | COc1ccc(N[C@@H]2CCCNC2)nc1-c1cnc2cc(OC)c(C3CC3)nn12 [Compound 32a, (R)-6-(6-cyclopropyl-7-methoxyimidazo[1,2-b]pyridazin-3-yl)-5-methoxy-N-(piperidin-3-yl)pyridin-2-amine]
8 | > 10000 | 47 | < 0.5 | COc1ccc(-c2cnc3cc(OC)c(C4CC4)nn23)nc1N[C@H]1CNC[C@@H]1F [Compound 33a, 6-(6-cyclopropyl-7-methoxyimidazo[1,2-b]pyridazin-3-yl)-N-((3S,4S)-4-fluoropyrrolidin-3-yl)-3-methoxypyridin-2-amine]
9 | > 10000 | 202 | < 0.5 | COc1ccc(-c2cnc3cc(OC)c(C4CC4)nn23)nc1N[C@@H]1CCCNC1 [Compound 34a, (R)-6-(6-cyclopropyl-7-methoxyimidazo[1,2-b]pyridazin-3-yl)-3-methoxy-N-(piperidin-3-yl)pyridin-2-amine]

Continued, compound first:

Row | SMILES | IC50 (IRAK1) [nM] | IC50 (IRAK4) [nM] | IC50 (FLT3) [nM]
10 | COc1cc2ncc(-c3nc(N[C@H]4CNC[C@@H]4F)c(F)cc3F)n2nc1C1CC(C)(C)C1 [Compound 8a, 6-(6-(3,3-dimethylcyclobutyl)-7-methoxyimidazo[1,2-b]pyridazin-3-yl)-3,5-difluoro-N-((3S,4S)-4-fluoropyrrolidin-3-yl)pyridin-2-amine] | 190 | 9 | 0.6
11 | COc1cc2ncc(-c3nc(N[C@H]4CNCC[C@@H]4F)c(F)cc3F)n2nc1C1CC(C)(C)C1 [Compound 9a, 6-(6-(3,3-dimethylcyclobutyl)-7-methoxyimidazo[1,2-b]pyridazin-3-yl)-3,5-difluoro-N-((3S,4S)-4-fluoropiperidin-3-yl)pyridin-2-amine] | 74 | 26 | < 0.5
12 | COc1cc2ncc(-c3nc(N[C@@H]4CCCNC4)c(F)cc3F)n2nc1C1CC2(CCC2)C1 [Compound 11a, (R)-3,5-difluoro-6-(7-methoxy-6-(spiro[3.3]heptan-2-yl)imidazo[1,2-b]pyridazin-3-yl)-N-(piperidin-3-yl)pyridin-2-amine] | 30 | 16 | < 0.5
13 | COc1cc2ncc(-c3nc(N[C@H]4CNC[C@@H]4F)c(F)cc3F)n2nc1C1CCCC1 [Compound 16a, 6-(6-cyclopentyl-7-methoxyimidazo[1,2-b]pyridazin-3-yl)-3,5-difluoro-N-((3S,4S)-4-fluoropyrrolidin-3-yl)pyridin-2-amine] | 7 | 2 | < 0.5
14 | COc1cc2ncc(-c3nc(N[C@@H]4CCCNC4)c(F)cc3F)n2nc1C1CCCC1 [Compound 17a, (R)-6-(6-cyclopentyl-7-methoxyimidazo[1,2-b]pyridazin-3-yl)-3,5-difluoro-N-(piperidin-3-yl)pyridin-2-amine] | 7 | 2 | < 0.5
15 | COc1cc2ncc(-c3nc(N[C@H]4CNCC[C@@H]4F)c(F)cc3F)n2nc1C1CCCC1 [Compound 18a, 6-(6-cyclopentyl-7-methoxyimidazo[1,2-b]pyridazin-3-yl)-3,5-difluoro-N-((3S,4S)-4-fluoropiperidin-3-yl)pyridin-2-amine] | 3 | 0.6 | < 0.5
16 | COc1cc2ncc(-c3nc(N[C@H]4CNC[C@@H]4F)c(F)cc3F)n2nc1C1CCCCC1 [Compound 19a, 6-(6-cyclohexyl-7-methoxyimidazo[1,2-b]pyridazin-3-yl)-3,5-difluoro-N-((3S,4S)-4-fluoropyrrolidin-3-yl)pyridin-2-amine] | 17 | 3 | < 0.5
17 | COc1cc2ncc(-c3nc(N[C@@H]4CCCNC4)c(F)cc3F)n2nc1C1CCCCC1 [Compound 20a, (R)-6-(6-cyclohexyl-7-methoxyimidazo[1,2-b]pyridazin-3-yl)-3,5-difluoro-N-(piperidin-3-yl)pyridin-2-amine] | 6 | 6 | < 0.5
18 | COc1cc2ncc(-c3nc(N[C@H]4CNCC[C@@H]4F)c(F)cc3F)n2nc1C1CCCCC1 [Compound 21a, 6-(6-cyclohexyl-7-methoxyimidazo[1,2-b]pyridazin-3-yl)-3,5-difluoro-N-((3S,4S)-4-fluoropiperidin-3-yl)pyridin-2-amine] | 5 | 21 | < 0.5
